Data reported in patent US8334294B2, “4,8-diphenyl-polyazanaphthalene derivatives” (Almirall, S.A., priority 2007, dated 2012).

Biological target: T1, human p38alfa (SAPKa) enzyme (Homo sapiens, UniProt Q16539)
T1 construct: purchased University of Dundee
Assay: p38 enzymatic activity inhibition assay (FRET, ATF2 substrate)
Format: biochemical
Conditions: 1 h pre-incubation; ATF2 0.62 μM, ATP 60 μM; 1 h at 25° C.; read-out: p38α IC50
Protocol: Enzymatic activity assay was performed in 96-well microtiter plates (Corning, catalog number #3686) using a total volume of 50 μl of an assay buffer composed of 50 mM HEPES pH 7.5, 10 mM MgCl2, 1.75 mM Na3VO4.
Various concentrations of the test compound or vehicle controls were pre-incubated for one hour with 0.055 μg/ml of the human p38alfa (SAPKa) enzyme (obtained from University of Dundee). The reaction started by addition of biotinylated ATF2 substrate and ATP in concentrations around their Km values (final concentration 0.62 μM and 60 μM respectively) and took place for one hour at 25° C. Addition of the detection reagents, streptavidin-XL665 and anti-phosphoresidue antibody coupled to Europium cryptate, caused the juxtaposition of the cryptate and the XL665 fluorophore, resulting in fluorescence energy transfer (FRET). The FRET intensity depends on the amount of bounded cryptate antibody, which is proportional to the extent of substrate phosphorylation. FRET intensity was measured using Victor 2V spectrofluorometer. Data were analyzed by non-linear regression (Hill equation) to generate a dose-response curve. The calculated IC50 value is the concentration of the test compound that caused a 50% decrease in the maximal FRET intensity.

T1 sequence (Q16539 whole entry): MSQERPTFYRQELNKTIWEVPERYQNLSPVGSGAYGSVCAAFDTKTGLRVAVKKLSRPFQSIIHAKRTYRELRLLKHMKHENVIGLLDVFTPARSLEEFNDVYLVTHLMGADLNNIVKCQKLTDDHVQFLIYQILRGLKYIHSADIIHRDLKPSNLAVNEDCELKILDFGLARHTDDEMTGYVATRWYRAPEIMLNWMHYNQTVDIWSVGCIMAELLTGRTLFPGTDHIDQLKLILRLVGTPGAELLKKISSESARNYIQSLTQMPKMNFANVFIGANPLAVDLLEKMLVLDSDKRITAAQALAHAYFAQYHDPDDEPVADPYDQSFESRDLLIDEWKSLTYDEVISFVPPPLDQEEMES

| IC50 [µM] | Compound |
| --- | --- |
| 0.022 | O=C(O)c1cc(-c2ccc(F)cc2F)c2cc[n+]([O-])c(-c3c(F)cccc3F)c2n1 [Example 2, 4-(2,4-Difluorophenyl)-8-(2,6-difluorophenyl)-1,7-naphthyridine-2-carboxylic acid 7-oxide] |
| 0.006 | O=c1cc(-c2ccc(F)cc2Cl)c2cc[n+]([O-])c(-c3c(F)cccc3F)c2[nH]1 [Example 8, 4-(2-Chloro-4-fluorophenyl)-8-(2,6-difluorophenyl)-1,7-naphthyridin-2(1H)-one 7-oxide] |
| 0.014 | CN(C)CCNc1cc(-c2ccc(F)cc2Cl)c2cc[n+]([O-])c(-c3c(F)cccc3F)c2n1 [Example 10, N′-[4-(2-Chloro-4-fluorophenyl)-8-(2,6-difluorophenyl)-7-oxido-1,7-naphthyridin-2-yl]-N,N-dimethylethane-1,2-diamine] |
| 0.0033 | O=c1cc(-c2ccc(F)cc2Cl)c2cc[n+]([O-])c(-c3c(Cl)cccc3Cl)c2[nH]1 [Example 12, 4-(2-Chloro-4-fluorophenyl)-8-(2,6-dichlorophenyl)-1,7-naphthyridin-2(1H)-one 7-oxide] |
| 0.013 | O=c1cc(-c2ccccc2Cl)c2ccnc(-c3c(Cl)cccc3Cl)c2[nH]1 [Example 17, 4-(2-Chlorophenyl)-8-(2,6-dichlorophenyl)-1,7-naphthyridin-2(1H)-one] |
| 0.015 | O=c1cc(-c2ccccc2Cl)c2cc[n+]([O-])c(-c3c(Cl)cccc3Cl)c2[nH]1 [Example 18, 4-(2-Chlorophenyl)-8-(2,6-dichlorophenyl)-1,7-naphthyridin-2(1H)-one 7-oxide] |
| 0.008 | CNc1cc(-c2ccccc2Cl)c2cc[n+]([O-])c(-c3c(Cl)cccc3Cl)c2n1 [Example 19, 4-(2-Chlorophenyl)-8-(2,6-dichlorophenyl)-N-methyl-1,7-naphthyridin-2-amine 7-oxide] |
| 0.012 | CN(C)c1cc(-c2ccccc2Cl)c2cc[n+]([O-])c(-c3c(Cl)cccc3Cl)c2n1 [Example 20, 4-(2-Chlorophenyl)-8-(2,6-dichlorophenyl)-N,N-dimethyl-1,7-naphthyridin-2-amine 7-oxide] |
| 0.066 | CS(=O)(=O)Nc1cc(-c2ccccc2Cl)c2cc[n+]([O-])c(-c3c(Cl)cccc3Cl)c2n1 [Example 21, N-[4-(2-Chlorophenyl)-8-(2,6-dichlorophenyl)-7-oxido-1,7-naphthyridin-2-yl]methanesulfonamide] |
| 0.085 | Nc1cc(-c2ccccc2Cl)c2cc[n+]([O-])c(-c3c(Cl)cccc3Cl)c2n1 [Example 22, 4-(2-Chlorophenyl)-8-(2,6-dichlorophenyl)-1,7-naphthyridin-2-amine 7-oxide] |
| 0.035 | [O-][n+]1ccc2c(-c3ccc(F)cc3Cl)ncnc2c1-c1c(F)cccc1F [Example 26, 4-(2-Chloro-4-fluorophenyl)-8-(2,6-difluorophenyl)pyrido[3,4-d]pyrimidine 7-oxide] |
| 0.028 | [O-][n+]1ccc2c(-c3ccc(F)cc3Cl)ncnc2c1-c1c(Cl)cccc1Cl [Example 30, 4-(2-Chloro-4-fluorophenyl)-8-(2,6-dichlorophenyl)pyrido[3,4-d]pyrimidine 7-oxide] |
| 0.034 | Nc1nc(-c2ccc(F)cc2Cl)c2cc[n+]([O-])c(-c3c(Cl)cccc3Cl)c2n1 [Example 32, 4-(2-Chloro-4-fluorophenyl)-8-(2,6-dichlorophenyl)pyrido[3,4-d]pyrimidin-2-amine 7-oxide] |
